# ChEMBL document CHEMBL3853306, “Antidepressant-like effects and mechanisms of flavonoids and related analogues” (Eur J Med Chem, 2016)
# What was measured:
# [1] = Antidepressant- like activity in mouse assessed as duration of immobility time at 10 mg/kg, ip by tail suspension test (reference value: 130.5 +/- 9.6 secs); format: functional, organism-based
# [2] = Antidepressant- like activity in Balb/c mouse assessed as immobility time at 10 mg/kg, ip administered 30 mins prior to testing by forced swimming test (reference value: 123.3 +/- 10.7 secs); format: functional, organism-based
# [3] = Antidepressant activity in albino mouse assessed as immobility time at 10 mg/kg, ip administered 30 mins prior to testing by forced swimming test (reference value: 141 +/- 14.2 secs); format: functional, organism-based
# [4] = Antidepressant- like activity in mouse assessed as duration of immobility time at 10 mg/kg, ip by forced swimming test (reference value: 141.5 +/- 10.9 secs); format: functional, organism-based
# [5] = Antidepressant- like activity in Balb/c mouse assessed as immobility time at 10 mg/kg, ip administered 30 mins prior to testing by tail suspension test (reference value: 130.5 +/- 9.6 secs); format: functional, organism-based
# [6] = Antidepressant- like activity in mouse assessed as decrease in immobility time at 30 mg/kg, po by tail suspension test relative to control; format: functional, organism-based; design: scale not given: the % may be the effect or the level left
# [7] = Antidepressant- like activity in mouse assessed as decrease in immobility time at 30 mg/kg, po by forced swimming test relative to control; format: functional, organism-based; design: scale not given: the % may be the effect or the level left
# [8] = Antidepressant activity in albino mouse assessed as decrease in immobility time at 10 mg/kg, ip administered 30 mins prior to testing by forced swimming test relative to control; format: functional, organism-based; design: scale not given: the % may be the effect or the level left
# Mus musculus = assay: In vivo inhibition of MAOA in ICR mouse brain at 20 mg/kg administered via oral gavage using kynuramine dihydrobromide as substrate preincubated for 15 mins followed by substrate addition measured after 30 mins in presence of MAOB inhibitor deprenyl by fluorescence spectrometric method; format: functional
# [9] = Antidepressant- like activity in Balb/c mouse assessed as immobility time at 5 mg/kg, ip administered 30 mins prior to testing by tail suspension test (reference value: 130.5 +/- 9.6 secs); format: functional, organism-based
# [10] = Antidepressant- like activity in Balb/c mouse assessed as immobility time at 1 mg/kg, ip administered 30 mins prior to testing by tail suspension test (reference value: 130.5 +/- 9.6 secs); format: functional, organism-based
# [11] = Antidepressant- like activity in Balb/c mouse assessed as immobility time at 1 mg/kg, ip administered 30 mins prior to testing by forced swimming test (reference value: 123.3 +/- 10.7 secs); format: functional, organism-based
# [12] = Antidepressant- like activity in Balb/c mouse assessed as immobility time at 5 mg/kg, ip administered 30 mins prior to testing by forced swimming test (reference value: 123.3 +/- 10.7 secs); format: functional, organism-based
# [13] = Inhibition of MAO in mouse brain mitochondrial fraction using kynuramine as substrate assessed as formation of 4-hydroxyquinoline by fluorescence spectrometric method; format: tissue-based
compound,measurement,setting,value
CNCCC(Oc1ccc(C(F)(F)F)cc1)c1ccccc1 (centres undefined),TIME,[1],0.0112 h
same,TIME,[2],0.0229 h
same,TIME,[3],0.0195 h
same,TIME,[4],0.0174 h
same,TIME,[5],0.021 h
CC(C)=CCOc1ccc(C(=O)/C=C/c2cccc(Br)c2)c(O)c1,TIME,[1],0.0118 h
same,Activity,[6],67.6%
same,TIME,[4],0.0102 h
same,Activity,[7],74.1%
COc1cc(C2CC(=O)c3ccc(O)cc3O2)ccc1O (centres undefined),Activity,[8],34.6%
same,TIME,[3],0.0256 h
O=c1c(O)c(-c2ccc(O)c(O)c2)oc2cc(O)ccc12 [FISETIN],inhibition in vivo at 20 mg/kg,Mus musculus,14.7%
CC(C)=CCOc1ccc(C(=O)/C=C/c2c(Cl)cccc2Cl)c(O)c1,TIME,[1],0.0135 h
same,TIME,[4],0.0116 h
CC(C)=CCOc1ccc(C(=O)/C=C/c2ccc3ccccc3c2)c(O)c1,TIME,[9],0.0217 h
same,TIME,[10],0.0295 h
same,TIME,[2],0.0257 h
same,TIME,[11],0.0254 h
same,TIME,[12],0.022 h
same,TIME,[5],0.0241 h
O=C1c2c(O)cc(O)cc2O[C@H](c2ccc(O)c(O)c2)[C@H]1O [(+)-TAXIFOLIN],IC50,[13],153.1 µg/mL
O=C1CC(c2ccc(Cl)cc2Cl)Oc2cc(O)ccc21 (centres undefined),Activity,[8],30.4%
O=c1cc(-c2ccc(O)c(O)c2)oc2cc(O[C@@H]3O[C@H](CO)[C@@H](O)[C@H](O)[C@H]3O)cc(O)c12 [GALUTEOLIN],IC50,[13],118.6 µg/mL
COc1ccc(/C=C/C(=O)c2ccc(OCC=C(C)C)cc2O)cc1,TIME,[1],0.0141 h
same,Activity,[6],61%
same,TIME,[4],0.0112 h
same,Activity,[7],71.4%
O=C1c2c(O)cc(O)cc2O[C@H](c2ccc(O)cc2)[C@H]1O [DIHYDROKAEMPFEROL],IC50,[13],154.7 µg/mL
O=C(O)[C@H]1O[C@@H](Oc2cc(O)c3c(=O)cc(-c4ccc(O)cc4)oc3c2)[C@H](O)[C@@H](O)[C@@H]1O,IC50,[13],81.7 µg/mL
